Assay results reported in patent US10947252B2, “Inhibitors of KEAP1-Nrf2 protein-protein interaction” (Janssen Pharmaceutica NV, priority 2018, dated 2021).

Columns and labels:
[1] = target: Kelch domain of human KEAP1 (321-624 aa) (Homo sapiens (Human), UniProt Q14145); assay: KEAP1 KELCH ThermoFluor binding assay; conditions: KEAP Kelch […], 1,8-ANS, pH 7.0, average of results obtained, read-out: Tf Kd;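 note: Ligand-induced melting temperature shift of E. coli-expressed KEAP1 Kelch protein, Kd estimated from concentration-response curves of ΔTm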
[2] = system: Glo-Response ARE-luc2P HEK293 cell line; assay: ARE luciferase reporter cell-based assay; conditions: Homo sapiens, HEK293, 24 h, average of results obtained;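 note: luciferase signal tracks Nrf2 activation of the ARE once compounds disrupt KEAP1-Nrf2 binding, read with One-Glo reagent, DMSO serving as low control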

Sequence of Kelch domain of human KEAP1 (321-624 aa) (Q14145 321-624): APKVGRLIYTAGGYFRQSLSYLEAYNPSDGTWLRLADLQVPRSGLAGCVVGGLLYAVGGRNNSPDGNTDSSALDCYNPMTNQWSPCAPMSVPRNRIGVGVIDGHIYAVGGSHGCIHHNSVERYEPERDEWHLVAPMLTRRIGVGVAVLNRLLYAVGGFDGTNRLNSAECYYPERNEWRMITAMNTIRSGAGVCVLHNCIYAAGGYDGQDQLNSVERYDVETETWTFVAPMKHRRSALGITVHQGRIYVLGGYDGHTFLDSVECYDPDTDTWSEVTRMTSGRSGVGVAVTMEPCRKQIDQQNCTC

Row | Compound | Kd [1] [nM] | EC50 [2] [nM]
1 | Cc1ccc([C@@H](c2ccn3c(C(F)F)nnc3c2C)C(C)(C)C(=O)O)nc1CN1CC2(CC2)Oc2nc(OCCN3CCCC3)c(C)cc2S1(=O)=O (single isomer, unassigned) [Example 358, (*S)-3-(3-(Difluoromethyl)-8-methyl-[1,2,4]triazolo[4,3-a]pyridin-7-yl)-2,2-dimethyl-3-(5-methyl-6-((8′-methyl-1′,1′-dioxido-7′-(2-(pyrrolidin-1-yl)ethoxy)spiro[cyclopropane-1,4′-pyrido[2,3-b][1,4,5]oxathiazepin]-2′(3′H)-yl)methyl)pyridin-2-yl)propanoic Acid] | 4460 | 23.3
2 | Cc1ccc([C@H](c2ccn3c(C(F)F)nnc3c2C)C(C)(C)C(=O)O)nc1CN1CC2(CC2)Oc2nc(OCCN3CCCC3)c(C)cc2S1(=O)=O (single isomer, unassigned) [Example 359, (*R)-3-(3-(Difluoromethyl)-8-methyl-[1,2,4]triazolo[4,3-a]pyridin-7-yl)-2,2-dimethyl-3-(5-methyl-6-((8′-methyl-1′,1′-dioxido-7′-(2-(pyrrolidin-1-yl)ethoxy)spiro[cyclopropane-1,4′-pyrido[2,3-b][[,4,5]oxathiazepin]-2′(3′H)-yl)methyl)pyridin-2-yl)propanoic Acid] | < 1 | 1230
3 | Cc1ccc([C@H](c2ccn3c(C(F)(F)F)nnc3c2C)C(C)(C)C(=O)O)cc1CN1CC2(CCOCC2)Oc2nc(OCCN3CCC(F)(F)CC3)ccc2S1(=O)=O (single isomer, unassigned) [Example 360, (*R)-3-(3-((7′-(2-(4,4-Difluoropiperidin-1-yl)ethoxy)-1′,1′-dioxido-2,3,5,6-tetrahydrospiro[pyran-4,4′-pyrido[2,3-b][1,4,5]oxathiazepin]-2′(3′H)-yl)methyl)-4-methylphenyl)-2,2-dimethyl-3-(8-methyl-3-(trifluoromethyl)-[1,2,4]triazolo[4,3-a][pyridine-7-yl)propanoic Acid] | < 1 | 9.3
4 | Cc1ccc([C@H](c2ccn3c(C(F)(F)F)nnc3c2C)C(C)(C)C(=O)O)cc1CN1CC2(CCOCC2)Oc2nc(NC3CC(O)C3)c(C)cc2S1(=O)=O (single isomer, unassigned) [Example 361, (*R)-3-(3-((7′-(((1R,3R)-3-Hydroxycyclobutyl)amino)-8′-methyl-1′,1′-dioxido-2,3,5,6-tetrahydrospiro[pyran-4,4′-pyrido[2,3-b][1,4,5]oxathiazepin]-2′(3′H)-yl)methyl)-4-methylphenyl)-2,2-dimethyl-3-(8-methyl-3-(trifluoromethyl)-[1,2,4]triazolo[4,3-a]pyridine-7-yl)propanoic Acid] | < 1 | 60.4
5 | Cc1ccc([C@H](c2ccn3c(C(F)(F)F)nnc3c2C)C(C)(C)C(=O)O)cc1CN1CC2(CCOCC2)Oc2nc(N[C@H](C)CN3CCOCC3)c(C)cc2S1(=O)=O (single isomer, unassigned) [Example 362, (*R)-2,2-Dimethyl-3-(4-methyl-3-((8′-methyl-7′-(((R-1-morpholinopropan-2-yl)amino)-1′,1′-dioxido-2,3,5,6-tetrahydrospiro[pyran-4,4′-pyrido[2,3-b][1,4,5]oxathiazepin]-2′(3′H)-yl)methyl)phenyl)-3-(8-methyl-3-(trifluoromethyl)-[1,2,4]triazolo[4,3-a]pyridine-7-yl)propanoic Acid] | < 1 | 20.5
6 | Cc1ccc([C@H](c2ccn3c(C(F)(F)F)nnc3c2C)C(C)(C)C(=O)O)cc1CN1CC2(CCOCC2)Oc2nc(N[C@@H](C)CN3CCOCC3)c(C)cc2S1(=O)=O (single isomer, unassigned) [Example 363, (*R)-2,2-Dimethyl-3-(4-methyl-3-((8′-methyl-7′-(((S-1-morpholinopropan-2-yl)amino)-1′,1′-dioxido-2,3,5,6-tetrahydrospiro[pyran-4,4′-pyrido[2,3-b][1,4,5]oxathiazepin]-2′(3′H)-yl)methyl)phenyl)-3-(8-methyl-3-(trifluoromethyl)-[1,2,4]triazolo[4,3-a]pyridine-7-yl)propanoic Acid] | < 1 | 12.9
7 | Cc1ccc([C@H](c2ccn3c(C(F)(F)F)nnc3c2C)C(C)(C)C(=O)O)cc1CN1CC2(CCOCC2)Oc2nc(NCCN3CCOCC3)c(C)cc2S1(=O)=O (single isomer, unassigned) [Example 365, (*R)-2,2-Dimethyl-3-(4-methyl-3-((8′-methyl-7′-((2-morpholinoethyl)amino)-1′,1′-dioxido-2,3,5,6-tetrahydrospiro[pyran-4,4′-pyrido[2,3-b][1,4,5]oxathiazepin]-2′(3′H)-yl)methyl)phenyl)-3-(8-methyl-3-(trifluoromethyl)-[1,2,4]triazolo[4,3-a]pyridine-7-yl)propanoic Acid] | < 1 | 23.9
8 | Cc1ccc([C@H](c2ccn3c(C(F)(F)F)nnc3c2C)C(C)(C)C(=O)O)cc1CN1CC2(CCOCC2)Oc2nc(NCCN3CCNCC3)c(C)cc2S1(=O)=O (single isomer, unassigned) [Example 366] | < 1 | 407

Now from value to compound, other results behind:

Row | Kd [1] [nM] | Compound | EC50 [2] [nM]
9 | < 1 | Cc1ccc([C@H](c2ccn3c(C(F)(F)F)nnc3c2C)C(C)(C)C(=O)O)cc1CN1CC2(CCOCC2)Oc2nc(N[C@@H](C)CN3CCCC3)c(C)cc2S1(=O)=O (single isomer, unassigned) [Example 367, (*R)-2,2-Dimethyl-3-(4-methyl-3-((8′-methyl-1′,1′-dioxido-7′-(((S)-1-(pyrrolidine-1-yl)propan-2-yl)amino)-2,3,5,6-tetrahydrospiro[pyran-4,4′-pyrido[2,3-b][1,4,5]oxathiazepin]-2′(3′H)-yl)methyl)phenyl)-3-(8-methyl-3-(trifluoromethyl)-[1,2,4]triazolo[4,3-a]pyridine-7-yl)propanoic Acid] | 78.6
10 | < 1 | Cc1ccc([C@H](c2ccn3c(C(F)(F)F)nnc3c2C)C(C)(C)C(=O)O)cc1CN1CC2(CCOCC2)Oc2nc(OCCN3CCNCC3)ccc2S1(=O)=O (single isomer, unassigned) [Example 368, (*R)-3-(3-((1′,1′-Dioxido-7′-(2-(piperazin-1-yl)ethoxy)-2,3,5,6-tetrahydrospiro[pyran-4,4′-pyrido[2,3-b][1,4,5]oxathiazepin]-2′(3′H)-yl)methyl)-4-methylphenyl)-2,2-dimethyl-3-(8-methyl-3-(trifluoromethyl)-[1,2,4]triazolo[4,3-a][pyridine-7-yl)propanoic Acid] | 256
11 | < 1 | Cc1ccc([C@H](c2ccn3c(C(F)(F)F)nnc3c2C)C(C)(C)C(=O)O)cc1CN1CC2(CCOCC2)Oc2nc(OCCC3CCNCC3)c(C)cc2S1(=O)=O (single isomer, unassigned) [Example 369, (*R)-2,2-Dimethyl-3-(4-methyl-3-(8′-methyl-1′,1′-dioxido-7′-(2-(piperidin-4-yl)ethoxy)-2,3,5,6-tetrahydrospiro[pyran-4,4′-pyrido[2,3-b][1,4,5]oxathiazepin]-2′(3′H)-yl)methyl)-4-methylphenyl)-2,2-dimethyl-3-(8-methyl-3-(trifluoromethyl)-[1,2,4]triazolo[4,3-a][pyridine-7-yl)propanoic Acid] | 176
12 | < 1 | Cc1ccc([C@@H](c2ccn3c(C(F)(F)F)nnc3c2C)C(C)(C)C(=O)O)cc1CN1CC2(CCOCC2)Oc2nc(OCCN3CCCC3)c(C)cc2S1(=O)=O (single isomer, unassigned) [Example 370, (*S)-2,2-Dimethyl-3-(4-methyl-3-((8′-methyl-1′,1′-dioxido-7′-(2-(pyrrolidin-1-yl)ethoxy)-2,3,5,6-tetrahydrospiro[pyran-4,4′-pyrido[2,3-b][1,4,5]oxathiazepin]-2′(3′H)-yl)methyl)-4-methylphenyl)-2,2-dimethyl-3-(8-methyl-3-(trifluoromethyl)-[1,2,4]triazolo[4,3-a][pyridine-7-yl)propanoic Acid] | 11.3
13 | < 1 | Cc1ccc([C@@H](c2ccn3c(C(F)(F)F)nnc3c2C)C(C)(C)C(=O)O)cc1CN1CC2(CC2)Oc2nc(OCCN3CCCCC3)ccc2S1(=O)=O (single isomer, unassigned) [Example 371, (*S)-3-(3-1′,1′-Dioxido-7′-(2-(piperidin-1-yl)ethoxy)spiro[cyclopropane-1,4′-pyrido[2,3-b][1,4,5]oxathiazepin]-2′(3′H)-yl)methyl)-4-methylphenyl)-2,2-dimethyl-3-(8-methyl-3-(trifluoromethyl)-[1,2,4]triazolo[4,3-a][pyridine-7-yl)propanoic Acid] | 6
14 | < 1 | Cc1ccc([C@@H](c2ccn3c(C(F)(F)F)nnc3c2C)C(C)(C)C(=O)O)cc1CN1CC2(CC2)Oc2nc(OCCN3CCCCC3)c(C)cc2S1(=O)=O (single isomer, unassigned) [Example 372, (*S)-2,2-Dimethyl-3-(4-methyl-3-((8′-methyl-1′,1′-dioxido-7′-(2-(piperidin-1-yl)ethoxy)spiro[cyclopropane-1,4′-pyrido[2,3-b][1,4,5]oxathiazepin]-2′(3′H)-yl)methyl)phenyl)-3-(8-methyl-3-(trifluoromethyl)-[1,2,4]triazolo[4,3-a]pyridine-7-yl)propanoic Acid] | 2.9
15 | < 1 | Cc1ccc([C@@H](c2ccn3c(C(F)(F)F)nnc3c2C)C(C)(C)C(=O)O)cc1CN1CC2(CC2)Oc2nc(OCCN3CCCC3)c(C)cc2S1(=O)=O (single isomer, unassigned) [Example 373, (*S)-2,2-Dimethyl-3-(4-methyl-3-((8′-methyl-1′,1′-dioxido-7′-(2-(pyrrolidin-1-yl)ethoxy)spiro[cyclopropane-1,4′-pyrido[2,3-b][1,4,5]oxathiazepin]-2′(3′H)-yl)methyl)phenyl)-3-(8-methyl-3-(trifluoromethyl)-[1,2,4]triazolo[4,3-a]pyridine-7-yl)propanoic Acid] | 5.4
